Drawing on article PMC9303580, “The T1‐tetramerisation domain of Kv1.2 rescues expression and preserves function of a truncated NaChBac sodium channel” (Febs Letters, 2022), this text covers IC50 for one compound.

Assay [1] deals with T1, T1-chimera.
T1 construct: gene NaChBac; single-chain fusion: N-terminal His6 tag, human Kv1.2 T1 domain (1-145, MTV...NEF), then NaChBac TM domain printed as 9-239 (KQN...ELT; forward primer encodes QKQN, K8 is in QKQ, so start is probably Q7), CTD removed; E. coli C41(DE3); with Potassium voltage-gated channel subfamily A member 2
The assay can be described thus: […]+ flux assay in proteoliposomes. It counts as biochemical, Halalkalibacterium halodurans. The settings on record: estimated; block at 45 min, POPE:POPG 3:1 liposomes, 450 mM NaCl inside, pH 7.5; pore blocker.

Assay [2] concerns the target T2, full-length NaChBac (Halalkalibacterium halodurans, UniProt Q9KCR8).
T2 construct: gene BH1501; full-length, hexa-histidine-tagged (pET-15b), expressed in E. coli C41(DE3), purified in Cymal-5, reconstituted in POPE:POPG liposomes
T2 sequence (Q9KCR8 1-274): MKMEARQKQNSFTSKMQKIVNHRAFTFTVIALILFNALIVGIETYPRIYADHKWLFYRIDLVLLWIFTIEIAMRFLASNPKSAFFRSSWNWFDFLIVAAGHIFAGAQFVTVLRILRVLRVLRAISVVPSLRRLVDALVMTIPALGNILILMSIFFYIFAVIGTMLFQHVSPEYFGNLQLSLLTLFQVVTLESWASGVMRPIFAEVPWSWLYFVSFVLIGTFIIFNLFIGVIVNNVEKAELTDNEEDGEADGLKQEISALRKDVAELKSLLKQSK
Put plainly: […]+ flux assay in proteoliposomes. It is filed as biochemical.

For `COCC(=O)O[C@]1(CCN(C)CCCc2nc3ccccc3[nH]2)CCc2cc(F)ccc2[C@@H]1C(C)C` [mibefradil], the IC50 in assay [1] and in assay [2] was 2 µM throughout.
